Reference: patent US4006164A, “4-Aryl-1,2,3,4-tetrahydropyrrolo[3,4-b]indoles” (Pfizer Inc., priority 1975, dated 1977)
Like-named read-outs stand apart in the source and are kept apart here.

Tested on: amphetamine-induced symptoms
Test: antagonism of amphetamine-induced symptoms in rats (blocking of amphetamine behavior of cage movement)
Format: in vivo
Details: Rattus norvegicus, ip
Excerpt: The tranquilizing agents of the present invention are characterized by relief of such schizophrenic manifestations in humans as hallucinations, hostility, suspiciousness, emotional and social withdrawal, anxiety, agitation and tension. Standard procedures of detecting and comparing tranquilizing activity of compounds in this series and for which there is an excellent correlation with human efficacy is the antagonism of amphetamine-induced symptoms in rats test as taught by A. Weissman, et al., J. Pharmacol. Exp. Ther., 151, 339 (1966) and by Quinton, et al., Nature, 200, 178 (1963).
The effects of the compounds of the present invention on prominent amphetamine-induced symptoms were studied in rats by a rating scale modeled after the one reported by Quinton and Halliwell; and Weissman. Groups of five rats were placed in a covered plastic cage measuring approximately 26 cm. × 42 cm. × 16 cm. After a brief period of acclimation in the cage, the rats in each group were treated intraperitoneally (i.p.) with the test compound. […] On the basis of dose-response data after amphetamine it was possible to determine the effective dose of the compound necessary to antagonize or block the characteristic amphetamine behavior of cage movement for fifty percent of the rats tested (ED50). The time of rating chosen coincides with the peak action of amphetamine which is 60-80 min. after treatment with this agent.
Employing the above-described procedure, the following compounds were tested for their ability to block the behavior effects to amphetamine, the results being reported as the ED50 in mg./kg. at the indicated times: […]

[1] = test compound i.p., d-amphetamine sulfate 5 mg./kg. i.p. 1 hr. later, rated one hour after amphetamine, read-out: ED50, 1 hr.
[2] = test compound i.p., d-amphetamine sulfate 5 mg./kg. i.p. 5 hrs. later, rated one hour after amphetamine, read-out: ED50, 5 hrs.

Compound | ED50 (1 h, read-out: ED50, 1 hr.) [mg/kg] | ED50 [1] [mg/kg] | ED50 [2] [mg/kg]
CN(C)CCCN1c2ccccc2Sc2ccc(Cl)cc21 [chlorpromazine, reference compound] | > 10 |  | 
CN1Cc2c(n(-c3ccc(F)cc3)c3ccc(F)cc23)C1 [X = F, Z = F, R = CH3, 7-Fluoro-4-(p-fluorophenyl)-2-methyl-1,2,3,4-tetrahydropyrrolo[3,4-b]indole] |  | 3.2 to 5.6 | > 10
OC(CCCN1Cc2c(n(-c3ccc(F)cc3)c3ccc(F)cc23)C1)c1ccc(F)cc1 (centres unmarked) |  | 1 to 3.2 | 1 to 3.2
